Reference: publication PMC5600277 (Neuropharmacology, 2017)
Read-outs that look alike come from different tables or passages of the source.

Legend:
Format in all cases: cell-based
[1] = target: T1, GABAρ receptor (GABAAR ρ1) (Homo sapiens, UniProt P24046); test: two-electrode voltage clamp in Xenopus oocytes, […] potentiation at […]; settings: read-out: % potentiation at 10 μM
GLIC [2] = target: T2, GLIC (Gloeobacter violaceus, UniProt Q7NDN8); test: two-electrode voltage clamp in Xenopus oocytes, […] inhibition at […]; settings: read-out: % inhibition at 30 μM
T2 sequence (Q7NDN8 44-359): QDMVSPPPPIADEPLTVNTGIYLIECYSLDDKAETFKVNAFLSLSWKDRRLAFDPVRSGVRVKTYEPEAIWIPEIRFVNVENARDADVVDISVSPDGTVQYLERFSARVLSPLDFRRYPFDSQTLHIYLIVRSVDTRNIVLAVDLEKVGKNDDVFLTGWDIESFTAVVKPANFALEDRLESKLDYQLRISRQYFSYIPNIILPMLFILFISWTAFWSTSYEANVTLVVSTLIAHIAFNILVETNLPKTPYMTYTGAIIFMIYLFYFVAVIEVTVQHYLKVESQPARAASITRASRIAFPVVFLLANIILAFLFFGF

[3] = target: T1, GABAρ receptor (GABAAR ρ1); test: as above; settings: read-out: % inhibition at 10 μM
GLIC [4] = target: T2, GLIC; test: as above; settings: read-out: % inhibition at 30 μM; remark: listed apart in the source
GLIC [5] = target: T2, GLIC; test: as above; settings: read-out: % inhibition at 100 μM

T1 sequence (P24046 22-479): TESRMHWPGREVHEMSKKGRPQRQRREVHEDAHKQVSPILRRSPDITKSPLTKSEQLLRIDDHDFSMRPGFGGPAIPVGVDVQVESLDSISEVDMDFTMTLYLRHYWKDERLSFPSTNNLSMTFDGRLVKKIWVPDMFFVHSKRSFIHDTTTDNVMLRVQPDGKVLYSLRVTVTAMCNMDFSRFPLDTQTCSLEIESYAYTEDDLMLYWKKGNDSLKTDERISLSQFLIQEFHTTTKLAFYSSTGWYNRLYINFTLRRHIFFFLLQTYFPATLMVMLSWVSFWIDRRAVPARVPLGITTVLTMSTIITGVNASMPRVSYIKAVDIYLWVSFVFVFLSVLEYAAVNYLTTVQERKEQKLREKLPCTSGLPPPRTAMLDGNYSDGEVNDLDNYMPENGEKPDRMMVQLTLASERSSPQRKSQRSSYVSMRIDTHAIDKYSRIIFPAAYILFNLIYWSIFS

SMILES: C[C@]12CC[C@@H](O)C[C@@H]1CC[C@@H]1[C@@H]2CC[C@]2(C)[C@@H](C(=O)CO)CC[C@@H]12 [5α-THDOC]
- activation at 10 µM [1]: 42 ± 2%
- inhibition at 30 µM (GLIC [2]): 11 ± 2%

SMILES: C[C@]12CC[C@@H](O)C[C@H]1CC[C@@H]1[C@@H]2CC[C@]2(C)[C@@H](C(=O)CO)CC[C@@H]12 [5β-THDOC]
- inhibition at 10 µM [3]: 25 ± 2%
- inhibition at 30 µM (GLIC [4]): 67 ± 3%

SMILES: CCCC(C)C1(CC)C(=O)NC(=O)NC1=O (centres unmarked) [PB, pentobarbital]
- inhibition at 100 µM (GLIC [5]): 26 ± 6%
